Assay type in all cases: cell-based
The test system of experiment [1] is HEL cell binding to human ICAM-4Fc. Nature of the experiment: Cell adhesion assay: peptide inhibition of HEL cell binding to human ICAM-4Fc. To be noted: for input cells bound expressed as a percentage of binding to ICAM-4Fc in the absence of peptides: FIG. 8, human ICAM-4Fc coated at 5 μg/ml, peptides 500 μM each, mean of three assays; for input cells bound expressed as a percentage of binding to human ICAM-4Fc in the absence of peptides: FIG. 16, human ICAM-4Fc coated at 2.5 μg/ml, peptides 750 μM each, EDTA 2 mM, mean of two assays. As for the experimental part: (§1) Cell adhesion assays were performed as described in Spring et al. 2001 (supra). Immulon4 96 well plates (Dynex Technologies, Billingshurst, United Kingdom) were coated with 1 μg/well goat-antihuman-Fc (Sigma, Poole, United Kingdom) for 24 hours at 4° C., washed three times with PBS and coated with an Fc fusion ICAM-4 protein for 18 hours at 4° C. before blocking with 0.4% BSA PBS for 2 hours at 22° C. Cells were labelled with 10 μg/ml 2′,7′-bis-(2-carboxyethyl)-5-(and-6-) carboxyfluorescein acetoxymethyl ester in assay buffer (IMEM, 2 mM EGTA, 10 μg/ml human ivIgG) for 15 minutes at 37° C. HT1080 cells were activated with 80 μM phorbol myristate acetate prior to both cells being washed with assay buffer containing 2 mM Mn^2+. Cells, at 5×10^4 cells per well, were added to the ICAM-4Fc-coated plates for 30 minutes at 37° C., prior to being given repeated washes in assay buffer and read on a fluorescence microplate reader (excitation 485 nm, emission 530 nm). The percentage of bound cells was calculated after each wash. […] In peptide inhibition studies the appropriate ICAM-4Fc coating concentration for each cell line was pre-determined by titration of ICAM-4Fc and the lowest concentration at which maximal binding was achieved was used to coat the plates

Experiment [2] concerns erythroblast adhesion to ICAM-4. Nature of the experiment: Peptide inhibition of erythroblast adhesion to ICAM-4. To be noted: FIG. 19; 5 μg/ml ICAM-4; 5 μg/ml TS2/16 beta 1 activating antibody; peptides 500 μM. How it is done:
We have utilised the blocking ICAM-4 peptides (i.e., SEQ ID NOs: 9, 10, 11 and 13—see Example 1) in order to inhibit the adhesion of day 4 erythroblasts to ICAM-4 (see FIG. 19). Erythroblast cultures were initiated from CD34 positive cells purified from pooled buffy coat residues (obtained from the National Blood Service, Bristol, UK) and maintained as described in Southcott et al. (1999, Blood 93: 4425-4435). Cell adhesion assays were performed as described in Example 1 above. Immulon-4 96 well plates (Dynes Technologies, Billingshurst, UK) were coated with 1 μg/well goat-antihuman-Fc (Sigma, Poole, UK) for 24 hours at 4° C., washed three times with PBS and coated with 0.25 μg/well Fc fusion ICAM-4 protein (ICAM-4Fc) for 18 hours at 4° C. before blocking with 0.4% BSA PBS for 2 hours at 22° C. Erythroblasts were labelled with 10 μg/ml 2′,7′-bis-(2-carboxyethyl)-5-(and-6-)carboxyfluorescein acetoxymethyl ester (Sigma, Poole, UK) in assay buffer (Iscoves modified Eagle medium, 2 mM EGTA, 0.1% BSA, 10 μg/ml Immune globulin intravenous (human) (Cutter Biological, Newbury, Berks, UK)) for 15 minutes at 37° C. Erythroblasts were washed with assay buffer containing 2 mM Mn^2+. Erythroblasts, at 5×10^4 cells per well, were added to the ICAM-4Fc-coated plates for 30 minutes at 37° C., prior to being cyclically read on a fluorescence microplate reader (excitation 485 nm, emission 530 nm) and washed in assay buffer. The percentage of bound cells was calculated after each wash Peptide inhibition was performed by incubating the cells with 500 μM peptide and 5 μg/ml TS2/16 (beta 1 activating antibody (IBGRL) at 0° C. for 15 minutes before their addition to the ICAM-4Fc coated plates.

For experiment [3], the system named is HEL cell binding to murine ICAM-4Fc. Nature of the experiment: Cell adhesion assay: peptide inhibition of HEL cell binding to murine ICAM-4Fc. The following applies: FIG. 12, murine ICAM-4Fc coated at 5 μg/ml, peptides 500 μM each, mean of two assays. As for the experimental part: Cell adhesion assays were performed as described in Spring et al. 2001 (supra). Immulon4 96 well plates (Dynex Technologies, Billingshurst, United Kingdom) were coated with 1 μg/well goat-antihuman-Fc (Sigma, Poole, United Kingdom) for 24 hours at 4° C., washed three times with PBS and coated with an Fc fusion ICAM-4 protein for 18 hours at 4° C. before blocking with 0.4% BSA PBS for 2 hours at 22° C. Cells were labelled with 10 μg/ml 2′,7′-bis-(2-carboxyethyl)-5-(and-6-) carboxyfluorescein acetoxymethyl ester in assay buffer (IMEM, 2 mM EGTA, 10 μg/ml human ivIgG) for 15 minutes at 37° C. HT1080 cells were activated with 80 μM phorbol myristate acetate prior to both cells being washed with assay buffer containing 2 mM Mn^2+. Cells, at 5×10^4 cells per well, were added to the ICAM-4Fc-coated plates for 30 minutes at 37° C., prior to being given repeated washes in assay buffer and read on a fluorescence microplate reader (excitation 485 nm, emission 530 nm). The percentage of bound cells was calculated after each wash. Peptide inhibition was performed by incubating the cells with 500 μM peptide at 0° C. for 15 minutes ahead of their addition, still in the presence of 500 μM peptide to the ICAM-4Fc coated plates. In peptide inhibition studies the appropriate ICAM-4Fc coating concentration for each cell line was pre-determined by titration of ICAM-4Fc and the lowest concentration at which maximal binding was achieved was used to coat the plates

Experiment [4] concerns HT1080 cell binding to human ICAM-4Fc. Nature of the experiment: Cell adhesion assay: peptide inhibition of HT1080 cell binding to human ICAM-4Fc. As for the experimental part:
as §1

Experiment [5] has as its system HT1080 cell binding to murine ICAM-4Fc. Nature of the experiment: Cell adhesion assay: peptide inhibition of HT1080 cell binding to murine ICAM-4Fc. To be noted: FIG. 14, murine ICAM-4Fc coated at 5 μg/ml, peptides 500 μM each, mean of two assays. How it is done:
as §1

The test system of experiment [6] is neutrophil adhesion to ICAM-4. Nature of the experiment: Peptide and antibody inhibition of neutrophil adhesion to ICAM-4. To be noted: FIG. 20; 2.5 μg/ml ICAM-4; 10 μg/ml blocking antibodies; peptides 500 μM. As for the experimental part: Utilising blocking β integrin subunit antibodies and our blocking ICAM-4 peptides (i.e., SEQ ID NOs: 9, 10, 11 and 13—see Example 1) in a microplate neutrophil adhesion assay. Neutrophils were purified from buffy coats (obtained from the National Blood Service, Bristol, UK) as described in Henderson et al. (1987, Biochem. J. 246: 325-329). Cell adhesion assays were performed as described in Example 1 above. Immulon-4 96 well plates (Dynes Technologies, Billingshurst, UK) were coated with 1 μg/well protein A (Sigma, Poole, UK) for 24 hours at 4° C., washed three times with PBS and coated with 0.125 μg/well Fc fusion ICAM-4 protein (ICAM-4Fc) for 18 hours at 4° C. before blocking with 0.4% BSA PBS for 2 hours at 22° C. Neutrophils were labelled with 10 μg/ml 2′,7′-bis-(2-carboxyethyl)-5-(and-6-)carboxyfluorescein acetoxymethyl ester (Sigma, Poole, UK) in assay buffer (Iscoves modified Eagle medium, 2 mM EGTA, 0.1% BSA for 15 minutes at 37° C. Neutrophils were washed with assay buffer containing 2 mM Mn^2+. Neutrophils, at 5×10^5 cells per well, were added to the ICAM-4Fc-coated plates for 10 minutes at 37° C., prior to being cyclically read on a fluorescence microplate reader (excitation 485 nm, emission 530 nm) and washed in assay buffer. The percentage of bound cells was calculated after each wash. […]

Ends that are not written are not given here.

For the compound “rqgktlrgp (RQGKTLRGP; not fully specified (some residues); printed as rqgktlrgp) [rqgktlrgp peptide, reference compound]”, in experiment [1], the “input cells bound expressed as a percentage of binding to ICAM-4Fc in the absence of peptides” value came to 107% and the “input cells bound expressed as a percentage of binding to human ICAM-4Fc in the absence of peptides” value is listed as 105%. Moreover, in experiment [2], the “effect on adhesion of day 4 erythroblasts to ICAM-4” value (shortened to “effect on adhesion … to ICAM-4”) was “had no effect”. Also, the “input cells bound expressed as a percentage of binding to murine ICAM-4Fc in the absence of peptides” value in experiment [3] is recorded as 94%.
Regarding `O=C(O)CN(CCN(CC(=O)O)CC(=O)O)CC(=O)O` [EDTA, reference compound], in experiment [4] (FIG. 10, human ICAM-4Fc coated at 7.5 μg/ml, peptides 500 μM each, mean of three assays), the “input cells bound expressed as a percentage of binding to human ICAM4Fc in the absence of peptides” value came to 6%. The “input cells bound expressed as a percentage of binding to human ICAM-4Fc in the absence of peptides” value in experiment [4] (FIG. 18, human ICAM-4Fc coated at 5 μg/ml, peptides 750 μM each, EDTA 2 mM, mean of two assays) came out at 10%; in experiment [1], 26%. Besides, the “input cells bound expressed as a percentage of binding to murine ICAM-4Fc in the absence of peptides” value in experiment [5] was found to be 1%; in experiment [3] it was 8%. In experiment [1], the “input cells bound expressed as a percentage of binding to ICAM-4Fc in the absence of peptides” value is 1%.
As for “tRwATSRit (TRWATSRIT; not fully specified (residues 1, 3, 8, 9)) [tRwATSRit peptide]”, the “effect on adhesion between neutrophils and ICAM-4” value in experiment [6] is “inhibit this interaction”. In experiment [1], the “input cells bound expressed as a percentage of binding to ICAM-4Fc in the absence of peptides” value came out at 58% and the “input cells bound expressed as a percentage of binding to human ICAM-4Fc in the absence of peptides” value came to 58%. The “effect on adhesion … to ICAM-4” value in experiment [2] is recorded as “inhibit adhesion”. Moreover, in experiment [3], the “input cells bound expressed as a percentage of binding to murine ICAM-4Fc in the absence of peptides” value is 58%.
As for “svpFWVrms (SVPFWVRMS; not fully specified (residues 1, 2, 3, 7, 8, 9)) [svpFWVrms peptide]”, in experiment [1], the “input cells bound expressed as a percentage of binding to ICAM-4Fc in the absence of peptides” value is on record as 61% and the “input cells bound expressed as a percentage of binding to human ICAM-4Fc in the absence of peptides” value was 64%. Also, the “effect on adhesion … to ICAM-4” value in experiment [2] is “had no effect”. Further, the “input cells bound expressed as a percentage of binding to murine ICAM-4Fc in the absence of peptides” value in experiment [3] worked out at 67%.
“aWssLahcl (AWSSLAHCL; not fully specified (some residues)) [aWssLahcl peptide]”: the “effect on adhesion between neutrophils and ICAM-4” value in experiment [6] was “inhibit this interaction”. Besides, the “input cells bound expressed as a percentage of binding to human ICAM-4Fc in the absence of peptides” value in experiment [1] is listed as 50%. For the same compound, in experiment [2], the “effect on adhesion … to ICAM-4” value is reported as “inhibit adhesion”.

The record behind these values is patent US20060252116A1, “Icam-4 binding sites” (priority 2002, published 2006).
